Measured values: article PMC6982951, “The N’-Substituted Derivatives of 5-Chloro-3-Methylisothiazole-4-Carboxylic Acid Hydrazide with Antiproliferative Activity” (Molecules, 2019)
Where “and” joins values, the source holds several entries; their conditions need not be identical. Equal values may be shown once. Entries after “also recorded” stand apart in the source; their conditions may differ. Read-outs that look alike come from different tables or passages of the source.

Experiments:
[1] = system: MV4-11 (human biphenotypic B cell myelomonocytic leukemia); test: MTT antiproliferative assay, 72 h exposure; format: cell-based; settings: for IC50 / IC50 ± SD: MV4-11, MTT, 72 h, n.a. = no activity in a concentration of 1–80 μg/mL; for inhibition at 80 µg/mL: MV4-11, compound concentration 80 μg/mL, read-out: inhibition of cell proliferation; for antiproliferative activity (in words): MV4-11 leukemia cells
Text: (§1) Established in vitro, human cell lines MV4-11 (human biphenotypic B myelomonocytic leukemia), MCF-7 (breast cancer), LoVo (colon cancer), LoVo/DX (colon cancer drug resistant), and MCF-10A (normal breast epithelial) were used. The lines were obtained from the American Type Culture Collection (lines MV4-11, LoVo, LoVo/DX, MCF-10A; Rockville, MD, USA) or from the European Collection of Authenticated Cell Cultures (line MCF-7) and are being maintained at the Hirszfeld Institute of Immunology and Experimental Therapy PAS, Wroclaw, Poland.
(§2) MV4-11 cells were cultured in the RPMI 1640 medium (HIIET PAS, Poland) supplemented with 1.0 mM sodium pyruvate, 2 mM L-glutamine and 10% FBS (all from Sigma Aldrich, Steinheim, Germany), LoVo cells were cultured in the F-12K medium (Life Technologies, Carlsbad, CA, United States) supplemented with 10% FBS (GE Healthcare, Chicago, IL, USA), and LoVo/DX cells were cultured in the mixture of RPMI 1640+OptiMEM (1:1) medium (HIIET PAS) supplemented with 5% FBS (GE Healthcare, Chicago, IL, USA), 2 mM L-glutamine, 1.0 mM sodium pyruvate (all from Sigma Aldrich, Steinheim, Germany) and 0.1 µg/mL doxorubicin chloride (Accord).
(§3) Test solutions of the compounds tested (50 mM) were prepared by dissolving the substances in DMSO (Sigma Aldrich). Afterwards, the tested compounds were diluted in a culture medium to reach the final concentrations at the range of 1-80 μg/mL (250, 125, 25 and 5 μM).
(§4) Twenty-four hours prior to the addition of the tested compounds, the cells were plated in 96-well plates (Sarstedt, Germany) at a density of 1 × 10^4 or 0.75 × 10^4 (MCF-7) cells per well. The assay was performed after 72 h of exposure to varying concentrations of the tested agents. The in vitro cytotoxic effect of all agents was examined using the MTT (MV4-11) or SRB assay. The results were calculated as IC50 (inhibitory concentration 50%) the concentration of tested agent, which is cytotoxic for 50% of the cancer cells. Each compound in each concentration was tested in triplicate in a single experiment, which was repeated 3–4 times.
This technique was applied for cells growing in suspension culture. An assay was performed after 72 h exposure to varying concentrations of the tested agents. For the last 4 h of incubation, 20 µL of MTT solution was added to each well (MTT: 3-(4,5-dimethylthiazol-2-yl)-2,5-diphenyl tetrazolium bromide; stock solution: 5 mg/mL, Sigma Aldrich). When the incubation time was completed, 80 µL of the lysing mixture was added to each well (lysing mixture: 225 mL dimethylformamide, POCh, Gliwice, Poland, 67.5 g sodium dodecyl sulfate, Sigma Aldrich, and 275 mL of distilled water). After 24 h, when formazan crystals had been dissolved, the optical densities of the samples were read on Synergy H4 photometer (BioTek Instruments, USA) at 570 nm wavelength. The background optical density was measured in the wells filled with culture medium, without the cells.

[2] = system: MCF-7 (breast adenocarcinoma); test: SRB antiproliferative assay, 72 h exposure; format: cell-based, human; settings: MCF-7, SRB; for IC50: read-out: IC50 ± SD MCF-7
Text: as §1
(§5) MCF-7 cells were cultured in the Eagle’s medium (HIIET PAS, Poland) supplemented with 10% FBS, 8 µg/mL insulin, 2 mM L-glutamine and 1% MEM-non essential amino acid solution 100X (all from Sigma Aldrich, Steinheim, Germany). MCF-10A cells were cultured in the HAM’S F-12 with L-glutamine medium (Corning) supplemented with 10% Hors Serum (Gibco), 10 µg/mL insulin, 0.5 µg/mL hydrocortisone, 20 ng/mL EGFh and 0.05 mg/mL Cholera Toxin from Vibrio cholerae (all from Sigma Aldrich, Steinheim, Germany). All culture mediums were supplemented with 100 units/mL penicillin (Polfa Tarchomin S.A. Poland), and 100 µg/mL streptomycin (Sigma Aldrich). All cell lines were grown at 37 °C with 5% CO2 humidified atmosphere.
as §3, §4
(§6) This technique was applied for the cytotoxicity screening against cells growing in adherent culture. The details of this technique were described by Skehan et. al.. The cytotoxicity assay was performed after 72 h exposure of the cultured cells to varying concentrations of the tested agents. The cells attached to the plastic were fixed by gently layering cold 50% TCA (trichloroacetic acid, Sigma Aldrich) on the top of the culture medium in each well. The plates were incubated at 4 °C for 1 h and then washed five times with tap water. The cellular material fixed with TCA was stained with 0.1% sulforhodamine B (SRB, Sigma Aldrich) dissolved in 1% acetic acid (POCh) for 30 min. Unbound dye was removed by rinsing (4×) with 1% acetic acid. The protein-bound dye was extracted with 10 mM unbuffered Tris base (Sigma Aldrich) for determination of optical density (at 540 nm) on Synergy H4 photometer (BioTek Instruments). The background optical density was measured in the wells filled with culture medium, without the cells.

[3] = system: MCF-10A (normal non-tumorigenic epithelial cell line derived from mammary gland); test: SRB cytotoxicity assay, 72 h exposure; format: cell-based, human; settings: for IC50: read-out: IC50 ± SD MCF-10A; for cytotoxicity against normal MCF-10A cells relative to cancer MCF-7 cells: MCF-10A versus MCF-7
Text: as §1, §5, §3, §4, §6

[4] = system: LoVo (human colon adenocarcinoma, sensitive); test: SRB antiproliferative assay, 72 h exposure; format: cell-based; settings: for IC50: read-out: IC50 ± SD LoVo
Text: as §1, §2, §3, §4, §6

[5] = system: LoVo/DX (human colon adenocarcinoma, resistant to doxorubicin); test: SRB antiproliferative assay, 72 h exposure; resistance index; format: cell-based; settings: for IC50 / IC50 ± SD LoVoDX: LoVo/DX, 72 h, SRB; for IC50: read-out: IC50 ± SD LoVoDX; for RI (resistance index): IC50 against LoVo/DX divided by IC50 against LoVo
Text: as §1, §2, §3, §4
The resistance indexes (RI) were calculated by dividing the IC50 values of the compounds tested against the cells of drug resistant cell LoVo/DX line by respective values obtained against the cells of drug sensitive LoVo line (Table 2). According to Harker et al., three categories of the cells could be distinguished: (a) the cells are drug-sensitive if the ratio approaches 0–2; (b) the cells are moderately drug-resistant if the ratio ranges from 2 to 10; (c) the cells are markedly drug-resistant if the ratio is higher than 10.
as §6

[6] = Homo sapiens, MCF-10A normal cells, SRB, 72 h
[7] = MCF-10A normal cells, SRB, 72 h

SMILES	IC50 ([1]; Homo sapiens, MV4-11, 72 h)	IC50 ([2]; Homo sapiens, MCF7, 72 h)	IC50 ([4]; Homo sapiens)	IC50 ([5]; Homo sapiens)	melting point [°C]	IC50 [3, 6]	RI (resistance index) [5]	antiproliferative activity (in words) [1]	other results
Cc1nsc(Cl)c1C(=O)N/N=C/c1cccc([N+](=O)[O-])c1 [Compound 5, 5-Chloro-N’-[(E)-(3-nitrophenyl)methylidene]-3-methylisothiazole-4-carbohydrazide]	18.7 µg/mL and 57.7 µM	20.1 µg/mL and 65.1 µM	22.7 µg/mL and 73.4 µM	29.2 µg/mL and 94.6 µM	199 to 200	60.8 µg/mL and 197 µM	1.29	–	cytotoxicity against normal MCF-10A cells relative to cancer MCF-7 cells [3]: about three times less cytotoxic
Cc1nsc(Cl)c1C(=O)NN [Compound 2, 5-Chloro-3-Methylisothiazole-4-Carbohydrazide]	> 80 µg/mL	–	–	–	–	–	–	very poor activity; also recorded: devoid of any anticancer activity	inhibition at 80 µg/mL ([1]; Homo sapiens): 45%
N.N.[Cl][Pt][Cl] [Cisplatin, reference compound]	–	–	–	–	–	–	0.49	–	IC50 [1]: 1.28 ± 0.45 µM; IC50 ± SD [1]: 0.38 ± 0.14 µg/mL; IC50 ± SD MCF-7 [2]: 1.56 ± 0.3 µg/mL; IC50 [2]: 5.2 ± 1 µM; IC50 ± SD MCF-10A [3, 7]: 2.9 ± 0.4 µg/mL; IC50 [3, 7]: 9.7 ± 1.4 µM; IC50 ± SD LoVo [4]: 1.7 ± 0.8 µg/mL; IC50 [4]: 5.6 ± 2.6 µM; IC50 ± SD LoVoDX [5]: 0.84 ± 0.17 µg/mL; IC50 [5]: 2.8 ± 0.6 µM
Cc1nsc(Cl)c1C(=O)N/N=C/c1cccc(Cl)c1 [Compound 4, 5-Chloro-N’-[(E)-(3-chlorophenyl)methylidene]-3-methylisothiazole-4-carbohydrazide]	15.2 µg/mL and 48.4 µM	48.6 ± 5.7 µM	59.4 ± 3.4 µM	47.9 ± 3.7 µM	174 to 175	24.6 µg/mL and 78.5 µM	0.81	–	IC50 ± SD MCF-7 [2]: 15.2 ± 1.8 µg/mL; IC50 ± SD LoVo [4]: 18.6 ± 1.1 µg/mL; IC50 ± SD LoVoDX [5]: 15 ± 1.1 µg/mL
Cc1nsc(Cl)c1C(=O)O [Compound 1, 5-Chloro-3-methylisothiazole-4-carboxylic acid]	–	–	–	–	–	–	–	no antiproliferative activity; also recorded: devoid of any anticancer activity	–
Cc1nsc(Cl)c1C(=O)N/N=C/C=C/c1ccccc1 [Compound 3, 5-Chloro-N’-[(1E,2E)-3-phenylprop-2-en-1-ylidene]-3-methylisothiazole-4-carbohydrazide]	4.4 µg/mL and 14 µM	39.3 ± 6.3 µM	25 ± 5.5 µM	34.2 ± 2.3 µM	180 to 181	20.9 µg/mL and 68.6 µM	1.37	–	IC50 ± SD [1]: 4.3 ± 1.9 µg/mL; IC50 ± SD MCF-7 [2]: 12 ± 1.9 µg/mL; activity (IC50 value) towards MCF-10A normal cell line relative to cancer cells ([3]; MCF-10A versus cancer cells): almost two times lower activity; IC50 ± SD LoVo [4]: 7.64 ± 1.7 µg/mL; IC50 ± SD LoVoDX [5]: 10.4 ± 0.7 µg/mL

Now from value to compound, other results behind:

IC50 ([1]; Homo sapiens, MV4-11, 72 h)	IC50 ([2]; Homo sapiens, MCF7, 72 h)	IC50 ([4]; Homo sapiens)	IC50 ([5]; Homo sapiens)	melting point [°C]	SMILES	IC50 [3, 6]	RI (resistance index) [5]	antiproliferative activity (in words) [1]	other results
> 80 µg/mL	–	–	–	232 to 234	Cc1ccc(/C=N/NC(=O)c2c(C)nsc2Cl)c(C)c1 [Compound 9, 5-Chloro-N’-[(E)-(2,4-dimethylphenyl)methylidene]-3-methylisothiazole-4-carbohydrazide]	–	–	very poor activity	inhibition at 80 µg/mL ([1]; Homo sapiens): 42.5%; cytotoxicity against normal MCF-10A cells relative to cancer MCF-7 cells [3]: about three times less cytotoxic
–	–	–	–	232 to 233	Cc1nsc(Cl)c1C(=O)N/N=C/c1ccccc1Cl [Compound 11, 5-Chloro-N’-[(E)-(2-chlorophenyl)methylidene]-3-methylisothiazole-4-carbohydrazide]	–	–	no antiproliferative activity	–
22.4 µg/mL and 72.3 µM	17.8 µg/mL and 58 µM	27.8 µg/mL and 90.5 µM	20 µg/mL and 65 µM	139 to 140	COc1cccc(/C=N/NC(=O)c2c(C)nsc2Cl)c1 [Compound 7, 5-Chloro-N’-[(E)-(3-methoxyphenyl)methylidene]-3-methylisothiazole-4-carbohydrazide]	56 µg/mL and 182 µM	0.72	–	antiproliferative activity relative to phenyl derivative 8 ([1]; fold higher than compound 8): 1.5–2 times
36.6 µg/mL and 131 µM	–	–	–	164 to 165	Cc1nsc(Cl)c1C(=O)N/N=C/c1ccccc1 [Compound 8, 5-Chloro-N’-[(E)-phenylmethylidene]-3-methylisothiazole-4-carbohydrazide]	–	–	–	cytotoxicity against normal MCF-10A cells relative to cancer MCF-7 cells [3]: about three times less cytotoxic
21.3 µg/mL and 69.4 µM	13.9 µg/mL and 42.9 µM	31.7 µg/mL and 97.7 µM	28.8 µg/mL and 88.8 µM	152 to 154	CCc1ccc(/C=N/NC(=O)c2c(C)nsc2Cl)cc1 [Compound 6, 5-Chloro-N’-[(E)-(4-ethylphenyl)methylidene]-3-methylisothiazole-4-carbohydrazide]	40.6 µg/mL and 125 µM	0.91	–	–
> 80 µg/mL	–	–	–	226 to 228	Cc1ccccc1/C=N/NC(=O)c1c(C)nsc1Cl [Compound 10, 5-Chloro-N’-[(E)-(2-methylphenyl)methylidene]-3-methylisothiazole-4-carbohydrazide]	–	–	very poor activity	inhibition at 80 µg/mL ([1]; Homo sapiens): 47%
